Structures can show the parent of a compound that is named as a salt.
Key:
[1] = Estimation of the oral bioavailability of prodrugs of phosphonic acids; format: in vivo; conditions: rat; for % Oral bioavailability: prodrug by oral gavage approximately 20 or 40 mg/kg parent equivalents, urinary recovery of parent vs i.v. parent
Method: Prodrugs were dissolved in 10% ethanol/90% polyethylene glycol (mw 400) and administered by oral gavage at doses of approximately 20 or 40 mg/kg parent compound equivalents to 6-hour fasted, Sprague Dawley rats (220-240 g). The rats were subsequently placed in metabolic cages and urine was collected for 24 hours. The quantity of parent compound excreted into urine was determined by HPLC analysis. An ODS column eluted with a gradient from potassium phosphate buffer, pH 5.5 to acetonitrile was employed for these measurements. Detection was at 310-325 nm. […] Parent compounds were typically dissolved in dimethyl sulfoxide, and administered via the tail vein in animals that were briefly anesthetized with halothane.

mouse liver FBPase = biological target: T1, mouse liver FBPase (Mus musculus, UniProt Q9QXD6); test: Inhibition of mouse liver FBPase; format: biochemical; conditions: partially purified mouse liver fraction
T1 construct: This partially purified fraction was used for enzyme assays; from tissue; host or cells: mouse liver, 45-75% ammonium sulfate fraction
T1 sequence (Q9QXD6 2-338 limits assumed): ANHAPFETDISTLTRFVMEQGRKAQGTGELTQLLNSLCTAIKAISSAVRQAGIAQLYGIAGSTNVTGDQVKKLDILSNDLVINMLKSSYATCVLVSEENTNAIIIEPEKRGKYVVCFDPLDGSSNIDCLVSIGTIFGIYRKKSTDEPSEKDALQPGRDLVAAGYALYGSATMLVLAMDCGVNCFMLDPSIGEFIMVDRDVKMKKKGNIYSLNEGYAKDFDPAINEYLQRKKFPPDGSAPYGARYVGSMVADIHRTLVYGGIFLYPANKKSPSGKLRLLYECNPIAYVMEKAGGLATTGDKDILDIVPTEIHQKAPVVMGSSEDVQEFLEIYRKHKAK
Method: Enzymatic activity was measured spectrophotometrically in reactions that coupled the formation of product (fructose 6-phosphate) to the reduction of dimethylthiazoldiphenyltetrazolium bromide (MTT) via NADP and phenazine methosulfate (PMS), using phosphoglucose isomerase and glucose 6-phosphate dehydrogenase as the coupling enzymes. Reaction mixtures (200 μl) were made up in 96-well microtitre plates, and consisted of 50 mM Tris-HCl, pH 7.4, 100 mM KCl, 5 mM EGTA, 2 mM MgCl2, 0.2 mM NADP, 1 mg/ml BSA, 1 mM MTT, 0.6 mM PMS, 1 unit/mL phosphoglucose isomerase, 2 units/mL glucose 6-phosphate dehydrogenase, and 0.150 mM substrate (fructose 1,6-bisphosphate). Inhibitor concentrations were varied from 0.01 μM to 10 μM.
Mouse liver FBPase was obtained by homogenizing freshly isolated mouse liver in 100 mM Tris-HCl buffer, pH 7.4, containing 1 mM EGTA, and 10% glycerol. […] This fraction was redissolved in the homogenization buffer and desalted on a PD-10 gel filtration column (Biorad) eluted with same. This partially purified fraction was used for enzyme assays. Both rat liver and mouse liver FBPase were assayed as described for human liver FBPase.

rat hepatocytes = test: Inhibition of gluconeogenesis in rat hepatocytes; format: cell-based; conditions: glucose production from lactate/pyruvate, isolated rat hepatocytes, 1 hour
Method: Hepatocytes were prepared from overnight fasted Sprague-Dawley rats (250-300 g) according to the procedure of Berry and Friend (Berry, M. N., Friend, D. S., 1969, J. Cell. Biol. 43, 506-520) as modified by Groen (Groen, A. K., Sips, H. J., Vervoorn, R. C., Tager, J. M., 1982, Eur. J. Biochem. 122, 87-93). Hepatocytes (75 mg wet weight/mL) were incubated in 1 ml Krebs-bicarbonate buffer containing 10 mM Lactate, 1 mM pyruvate, 1 mg/mL BSA, and test compound concentrations from 1 to 500 μM. Incubations were carried out in a 95% oxygen, 5% carbon dioxide atmosphere in closed, 50-mL Falcon tubes submerged in a rapidly shaking water bath (37° C.). After 1 hour, an aliquot (0.25 mL) was removed, transferred to an Eppendorf tube and centrifuged. 50 μL of supernatant was then assayed for glucose content using a Sigma Glucose Oxidase kit as per the manufacturer's instructions.

| Compound | IC50 (mouse liver FBPase) | melting point | further results |
| --- | --- | --- | --- |
| COC(=O)OCC1COP(=O)(c2ccc(-c3nc4ccc(Cl)cc4n3CC(C)C)o2)OC1 (stereo not shown) [Compound 31.15, 6-Chloro-1-isobutyl-2-{5-[2-(methoxycarbonyloxymethyl)-propan-1,3-yl]phosphono-2-furanyl}benzimidazole] |  |  | % Oral bioavailability [1]: 14.1% |
| 4-Amino-5-fluoro-7-bromo-1-isobutyl-2-(1-methoxymethyl-3-bispivaloyloxymethylphosphonate)benzimidazole [Compound 18.7] |  |  | % Oral bioavailability [1]: 6.9% |
| CC(C)(C)Cn1c(-c2ccc(P(=O)(O)O)o2)nc2ccc(Cl)cc21 [Compound 13.56, 6-Chloro-1-neopentyl-2-(2-phosphono-5-furanyl)benzimidazole] | > 20000 nM |  |  |
| CC(C)Cn1c(-c2ccc(P(=O)(O)O)o2)nc2c(N)c(F)cc(CCCN(C)C)c21 [Compound 12.84, 4-Amino-5-fluoro-7-(3-N,N-dimethylpropylamine)-1-isobutyl-2-(2-phosphono-5-furanyl)benzimidazole hydrobromide salt] | 500 nM |  |  |
| CC(C)Cn1c(-c2ccc(P(=O)(O)O)o2)nc2c(O)cccc21 [Compound 13.21, 4-Hydroxy-1-isobutyl-2-(2-phosphono-5-furanyl)benzimidazole] | > 20000 nM | 244 to 245 °C |  |
| Cc1c(Cl)ccc2c1nc(-c1ccc(P(=O)(O)O)o1)n2CC(C)C [Compound 13.96, 1-Isobutyl-4-methyl-5-chloro-2-(2-phosphono-5-furanyl)benzimidazole] | 700 nM |  |  |
| CC(C)Cn1c(-c2ccc(P(=O)(O)O)o2)nc2c(N)c(Br)ccc21 [Compound 12.44, 4-Amino-5-bromo-1-isobutyl-2-[2-(5-phosphono)furanyl]benzimidazole] |  |  | IC50 (rat hepatocytes): 14 µM |
| CC(C)Cn1c(-c2ccc(P(=O)(O)O)o2)nc2c(N)c(F)cc(CCCBr)c21 [Compound 12.80, 4-Amino-5-fluoro-7-(3-bromopropyl)-1-isobutyl-2-(2-phosphono-5-furanyl)benzimidazole] | 300 nM | 190 to 195 °C (dec.) | IC50 (rat hepatocytes; Hepatocyte): 1.6 µM |
| CC(C)(C)Cn1c(-c2ccc(P(=O)(O)O)o2)nc2c(F)cccc21 [Compound 13.25, 4-Fluoro-1-neopentyl-2-(2-phosphonofuranyl)benzimidazole] | > 20000 nM |  |  |
| COC(=O)c1cccc(Cn2c(-c3ccc(P(=O)(O)O)o3)nc3c(N)cccc32)c1 [Compound 12.6, 4-Amino-1-(3-carbomethoxybenzyl)-2-[2-(5-phosphono)furanyl]benzimidazole] | > 20000 nM | 198 to 202 °C |  |
| CC(C)Cn1c(-c2ccc(P(=O)(O)O)o2)nc2c(N)c(F)c(Cl)cc21 [Compound 12.63, 4-Amino-5-fluoro-6-chloro-1-isobutyl-2-(2-phosphono-5-furanyl)benzimidazole] |  | 175 to 180 °C | IC50 (rat hepatocytes; Hepatocyte): 16 µM |
| CC(C)Cn1c(-c2ccc(P(=O)(O)O)o2)nc2c(N)c(F)cc(Cl)c21 [Compound 12.54, 4-Amino-5-fluoro-7-chloro-1-isobutyl-2-(2-phosphono-5-furanyl)benzimidazole] | 1070 nM | 220 to 225 °C |  |
| CC(C)Cn1c(-c2ccc(P(=O)(O)O)o2)nc2c(N)c(Cl)cc(Cl)c21 [Compound 12.50, 4-Amino-5,7-dichloro-1-isobutyl-2-(2-phosphono-5-furanyl)benzimidazole] |  | 205 to 207 °C | IC50 (rat hepatocytes; Hepatocyte): 17 µM |
| CC(C)Cn1c(-c2ccc(P(=O)(OCOC(=O)C(C)(C)C)OCOC(=O)C(C)(C)C)o2)nc2c(N)c(Cl)cc(Cl)c21 [Compound 18.2, 4-Amino-5,7-dichloro-1isobutyl-2-(5-furanyl-2-bispivaloyloxymethylphosphonate)benzimidazole] |  |  | IC50 (rat hepatocytes): 17 µM |
| Cc1c(Cl)cc2c(nc(-c3ccc(P(=O)(O)O)o3)n2CC2CC2)c1C [Compound 13.61, 6-Chloro-4,5-dimethyl-1-cyclopropylmethyl-2-(2-phosphono-5-furanyl)benzimidazole] | > 20000 nM | 219 to 220 °C |  |
| CC(C)C(=O)OCOP(=O)(OCOC(=O)C(C)C)c1ccc(-c2nc3c(N)ncnc3n2CC(C)(C)C)o1 [Compound A] |  |  | oral bioavailability (calculated 6.2/76.8) ([1]; oral approximately 20 mg/kg): approximately 8%; % of oral dose recovered in urine ([1]; oral approximately 20 mg/kg, parent compound in 24 hour urine): 6.2% |
| CC(C)Cn1c(-c2ccc(P(=O)(O)O)o2)nc2c(N)c(F)cc(CCCCBr)c21 [Compound 12.82, 4-Amino-5-fluoro-7-(4-bromobutyl)-1-isobutyl-2-(2-phosphono-5-furanyl)benzimidazole] | 300 nM | 200 to 220 °C (dec.) | IC50 (rat hepatocytes; Hepatocyte): 2.2 µM |
| CC(C)(C)Cn1c(-c2ccc(P(=O)(O)O)o2)nc2c(N)ncnc21 [Compound B] |  |  | % of intravenous dose recovered in urine ([1]; intravenous approximately 10 mg/kg, 24 hour urine): 76.8% |
| CC(C)Cn1c(-c2ccc(P(=O)(O)O)o2)nc2c(N)c(F)cc(Br)c21 [Compound 12.62, 4-Amino-5-fluoro-7-bromo-1-isobutyl-2-(2-phosphono-5-furanyl)benzimidazole] |  | 195 to 200 °C | IC50 (rat hepatocytes; Hepatocyte): 5 µM |
| Nc1cccc2c1nc(-c1ccc(P(=O)(O)O)o1)n2CCCCl [Compound 12.35, 4-Amino-1-(3-chloropropyl)-2-[2-(5-phosphono)furanyl]benzimidazole] | > 20000 nM |  |  |
| Nc1cccc2c1nc(-c1ccc(P(=O)(O)O)o1)n2Cc1ccoc1 [Compound 12.37, 4-Amino-1-(3-furanylmethyl)-2-[2-(5-phosphono)furanyl]benzimidazole] | 1270 nM |  |  |
| O=C(NCP(=O)(O)O)c1nc2ccccc2[nH]1 [Compound 13.66, N-(Phosphonomethyl)benzimidazole-2-carboxamide] | > 20000 nM | 258 to 260 °C |  |
| CC(C)Cn1c(-c2ccc(P(=O)(O)O)o2)nc2c(N)c(F)cc(CCCO)c21 [Compound 12.79, 4-Amino-7-(propane-3-ol)-5-fluoro-1-isobutyl-2-(2-phosphono-5-furanyl)benzimidazole] | 720 nM | 170 to 173 °C | IC50 (rat hepatocytes; Hepatocyte): 1 µM |
| Cc1cc(C)c2nc(-c3ccc(P(=O)(O)O)o3)n(CC(C)C)c2c1 (hydrate or solvate) [Compound 13.85, 1-Isobutyl-4,6-dimethyl-2-(2-phosphono-5-furanyl)benzimidazole] |  | 209 to 212 °C |  |
| CC(C)Cn1c(-c2ccc(P(=O)(O)O)o2)nc2c(N)c(Br)cc(Br)c21 [Compound 12.42, 4-Amino-5,7-dibromo-1-isobutyl-2-[2-(5-phosphono)furanyl]benzimidazole] |  |  | IC50 (rat hepatocytes): 14 µM |
| CC(C)Cn1c(-c2ccc(P(=O)(O)O)o2)nc2c(N)c(O)ccc21 [Compound 11.1, 4-Amino-5-hydroxy-1-isobutyl-2-(2-phosphono-5-furanyl)benzimidazole] |  | 206 to 209 °C |  |
| CCc1c(Cl)c(F)cc2[nH]c(-c3ccc(P(=O)(O)O)o3)nc12 [Compound 13.80, 5-Fluoro-6-chloro-7-ethyl-2-(2-phosphono-5-furanyl)benzimidazole] |  | 165 to 190 °C |  |
| CC(C)Cn1c(-c2ccc(P(=O)(O)O)o2)nc2cc(F)c([N+](=O)[O-])c(Br)c21 [Compound 13.68, 1-Isobutyl-5-fluoro-6-nitro-7-bromo-2-(2-phosphono-5-furanyl)benzimidazole] |  | 161 to 165 °C |  |
| CC(C)Cn1c(COCP(=O)(O)O)nc2c(N)c(F)cc(Br)c21 [Compound 15.1, 4-Amino-5-fluoro-7-bromo-1-isobutyl-2-(1-methoxymethyl-3-phosphono)benzimidazole] | 1500 nM | 200 to 202 °C (dec.) | IC50 (rat hepatocytes; Hepatocyte): 16 µM |

Reference: US6399782B1, “Benzimidazole inhibitors of fructose 1,6-bisphosphatase” (Metabasis Therapeutics, Inc., priority 1997, dated 2002)
